The source of these data is patent US8592486B2, “Compounds for inflammation and immune-related uses” (Synta Pharmaceuticals Corp., priority 2005, dated 2013).

Assay [1] deals with degranulation in RBL cells. Nature of the assay: Inhibition of degranulation in RBL cells. It counts as cell-based. The following applies: Rattus norvegicus, anti-DNP IgE, read-out: IC50 (concentration which inhibits 50% of degranulation in RBL cells). How it is done: The day before the assay was performed, RBL cells, that had been grown to confluence in a 96 well plate, were incubated at 37° C. for at least 2 hours. The medium was replaced in each well with 100 μL of fresh medium containing […] of anti-DNP IgE.
On the following day, the cells were washed once with PRS (2.6 mM glucose and 0.1% BSA) and 160 μL of PRS was added to each well. A test compound was added to a well in a 20 μL solution at 10× of the desired concentration and incubated for 20 to 40 minutes at 37° C. 20 μL of 10× mouse anti-IgE ([…]) was added. Maximum degranulation occurred between 15 to 40 minutes after addition of anti-IgE.

Another assay deals with IL-2 production. In words: Inhibition of IL-2 production in PHA-activated Jurkat cells (ELISA). It counts as cell-based, human. The following applies: Homo sapiens, Jurkat cells, PHA 2.5 μg/mL, 20 hours, IL-2 ELISA, read-out: IC50 (inhibition of IL-2 production). The method, then: Jurkat cells were placed in a 96 well plate (0.5 million cells per well in 1% FBS medium) then a test compound of this invention was added at different concentrations. After 10 minutes, the cells were activated with PHA (final concentration 2.5 μg/mL) and incubated for 20 hours at 37° C. under CO2. The final volume was 200 μL. Following incubation, the cells were centrifuged and the supernatants collected and stored at −70° C. prior to assaying for IL-2 production. A commercial ELISA kit (IL-2 Eli-pair, Diaclone Research, Besancon, France) was used to detect production of IL-2, from which dose response curves were obtained. The IC50 value was calculated as the concentration at which 50% of maximum IL-2 production after stimulation was inhibited versus a non-stimulation control.

Where a name gives a salt, the structure may show the parent alone. Read-outs that look alike come from different tables or passages of the source.

Turning to `COCCOC(=O)c1ccc(Cl)c(-c2ccc(NC(=O)c3c(F)cccc3F)cc2)c1` [Compound 2, 6-Chloro-4′-(2,6-difluoro-benzoylamino)-biphenyl-3-(carboxylic acid 2-methoxyethyl ester)], the IC50 in assay [1] was 4850 nM; with IL-2 production (Jurkat, 20 h) it was 9 nM.
The like results for `Cc1ccc(-c2ncco2)cc1-c1ccc(NC(=O)c2c(F)cccc2F)cc1` [Compound 3, 2,6-Difluoro-N-(2′-methyl-5′-oxazol-2-yl-biphenyl-4-yl)-bezamide] were, in that order, 4500 nM and 1.6 nM.
The matching figures for `COC(=O)c1ccc(C)c(-c2ccc(NC(=O)c3c(F)cncc3F)cc2)c1` [Compound 4, 4′-[(3,5-Difluoro-pyridine-4-cabonyl)-amino]-6-methyl-biphenyl-3-carboxylic acid methyl ester]: 1450 nM and 2 nM.
The matching figures for `COc1ncc(Cl)cc1-c1ccc(NC(=O)c2c(F)cccc2F)cc1` [Compound 5, N-[4-(5-Chloro-2-methoxy-pyridin-3-yl)-phenyl]-2,6-difluoro-benzamide]: 1100 nM and 1 nM.
As for `Cc1ccc(-c2nnn[nH]2)cc1-c1ccc(NC(=O)c2c(F)cccc2F)cc1` [Compound 6, 2,6-Difluoro-N-[2′-methyl-5′-(1H-tetrazol-5-yl)-biphenyl-4-yl]-benzamide], the IC50 in assay [1] worked out at 5010 nM; in the assay with IL-2 production (Jurkat, 20 h), 9 nM.
`COc1ncc(Cl)cc1-c1ccc(NC(=O)c2c(F)cccc2F)cc1` [Compound 8, N-[4-(5-Chloro-2-methoxy-pyridin-3-yl)-phenyl]-2,6-difluoro-benzamide, hydrochloride]: the IC50 is 520 nM in assay [1] (RBL) and 13 nM with IL-2 production.
`Cc1cnccc1C(=O)Nc1ccc(-c2cc(-c3nccs3)ccc2C)cc1` [Compound 9, 3-Methyl-N-(2′-methyl-5′-thiazol-2-yl-biphenyl-4-yl)-isonicotinamide, HCl salt]: the IC50 in assay [1] worked out at 1410 nM; with IL-2 production (Jurkat, 20 h), 7 nM.
For the compound `COC(=O)c1ccc(C)c(-c2ccc(NC(=O)c3ccncc3F)cc2)c1` [Compound 12, 4′-[(3-Fluoro-pyridine-4-carbonyl)-amino]-6-methyl-biphenyl-3-carboxylic acid methyl ester], the IC50 in assay [1] was found to be 480 nM; with IL-2 production (Jurkat, 20 h) it was 5 nM.
With `Cc1ccc(-c2ncnn2C)cc1-c1ccc(NC(=O)c2ccncc2F)cc1` [Compound 67, 3-Fluoro-N-[2′-methyl-5′-(2-methyl-2H-[1,2,4]triazol-3-yl)-biphenyl-4-yl]-isonicotinamide], the IC50 in the assay with IL-2 production (Jurkat, 20 h) was 27 nM.
The same measure, in the same setting: in the case of `Cc1ccc(-c2nnco2)cc1-c1ccc(NC(=O)c2c(F)cncc2F)cc1` [Compound 68, 3,5-Difluoro-N-[2′-methyl-5′-([1,3,4]oxadiazol-2-yl)-biphenyl-4-yl]-isonicotinamide] it was 3 nM; in that of `Cc1ccc(-c2nnco2)cc1-c1ccc(NC(=O)c2c(F)cccc2F)cc1` [Compound 69, 2,6-Difluoro-N-[2′-methyl-5′-([1,3,4]oxadiazol-2-yl)-biphenyl-4-yl]-benzamide], 5 nM.
The same measure, in the same setting: in the case of `Cc1cnccc1C(=O)Nc1ccc(-c2cc(-c3nnco3)ccc2C)cc1` [Compound 70, 3-Methyl-N-[2′-methyl-5′-([1,3,4]oxadiazol-2-yl)-biphenyl-4-yl]-isonicotinamide] it was 13 nM; in that of `Cc1ccc(-c2nnco2)cc1-c1ccc(NC(=O)c2ccncc2F)cc1` [Compound 71, 3-Fluoro-N-[2′-methyl-5′-([1,3,4]oxadiazol-2-yl)-biphenyl-4-yl]-isonicotinamide], 6 nM; in that of `CSc1nnc(-c2ccc(C)c(-c3ccc(NC(=O)c4c(F)cccc4F)cc3)c2)n1C` [Compound 72, 2,6-Difluoro-N-[2′-methyl-5′-(4-methyl-5-methylsulfanyl-4H-[1,2,4]triazol-3-yl)-biphenyl-4-yl]-benzamide], greater than 1000 nM.
The same measure, in the same setting: in the case of `CSc1nnc(-c2ccc(C)c(-c3ccc(NC(=O)c4ccncc4F)cc3)c2)n1C` [Compound 73, 3-Fluoro-N-[2′-methyl-5′-(4-methyl-5-methylsulfanyl-4H-[1,2,4]triazol-3-yl)-biphenyl-4-yl]-isonicotinamide] it was greater than 1000 nM; in that of `CSc1nnc(-c2ccc(C)c(-c3ccc(NC(=O)c4ccncc4C)cc3)c2)n1C` [Compound 74, 3-Methyl-N-[2′-methyl-5′-(4-methyl-5-methylsulfanyl-4H-[1,2,4]triazol-3-yl)-biphenyl-4-yl]-isonicotinamide], greater than 1000 nM; in that of `CSc1nnc(-c2ccc(C)c(-c3ccc(NC(=O)c4c(F)cncc4F)cc3)c2)n1C` [Compound 75, 3,5-Difluoro-N-[2′-methyl-5′-(4-methyl-5-methylsulfanyl-4H-[1,2,4]triazol-3-yl)-biphenyl-4-yl]-isonicotinamide], greater than 1000 nM.
On to `Cc1ccc(-c2nccs2)cc1-c1ccc(NC(=O)c2snnc2C)cc1` [Compound 76, 4-Methyl-[1,2,3]thiadazole-5-carboxylic acid [2′-methyl-5′-(thiazol-2-yl)-biphenyl-4-yl]-amide], for which the IC50 with IL-2 production (Jurkat, 20 h) turned out to be 7 nM.
Same read-out and setting: the result for `Cc1ccc(-c2cocn2)cc1-c1ccc(NC(=O)c2c(F)cccc2F)cc1` [Compound 77, 2,6-Difluoro-N-[2′-methyl-5′-(oxazol-4-yl)-biphenyl-4-yl]-benzamide] reads 10 nM; that for `Cc1ccc(-c2cocn2)cc1-c1ccc(NC(=O)c2ccncc2F)cc1` [Compound 78, 3-Fluoro-N-[2′-methyl-5′-(oxazol-4-yl)-biphenyl-4-yl]-isonicotinamide], 9 nM.
For `COc1ccc(CCCOC(Cn2ccnc2)c2ccc(OC)cc2)cc1` (centres unmarked) [SKF96365, reference compound], the IC50 in assay [1] (RBL) is greater than 20000 nM.
